Measured values taken from US10940118B2, “Nanoparticles and methods of producing the same” (THE BOARD OF TRUSTEES OF THE UNIVERSITY OF ILLINOIS, priority 2013, dated 2021).

Experiments:
ICR mice [1] = assay: 52° C. warm-water tail-flick test, acute morphine tolerance; assay type: in vivo; conditions: oral administration following subcutaneous injection of morphine
Protocol: Basal nociception and morphine-induced antinociception were studied using the 52° C. warm-water tail-flick test. In brief, mice were held over the water bath and one third of the distal portion of the tail was immersed into the water. The latency to a quick tail-flick response was recorded as a base-line measurement. Any mouse not responding within 5 sec was excluded from further experiment. To prevent tissue damage, a cut-off time of 12 sec was applied. Morphine-induced antinociception was evaluated 30 min after the injection of a testing dose of morphine (10 mg/kg s.c.), and expressed as the percentage of maximal possible effect (% MPE) according to the following formula: % MPE=100×(postdrug latency−predrug latency)/(cut off−predrug latency)
To induce acute tolerance and dependence, separate groups of three ICR mice (20-25 g) were treated with a large dose of morphine (100 mg/kg s.c.). Maximal morphine tolerance and dependence peaked at approximately 4 to 6 h. Mice in the control group received an equal volume of saline. Tolerance to opioids was assessed 4.5 h later by monitoring the antinociceptive effect produced by a test dose of morphine (10 mg/kg, s.c.). The presence of opioid tolerance was signified by a significant reduction of antinociceptive effect. […] Mice were immediately placed inside glass cylinders, and naloxone-induced vertical jumps were recorded for 15 min. […]

ICR mice [2] = assay: Hot plate test, acute morphine tolerance; assay type: in vivo; conditions: oral administration following subcutaneous injection of morphine
Protocol: For assessment of response latencies to thermal stimulus in mice, a Cold/Hot Plate Analgesia Meter (Ugo Basile, Comerio, Italy) was used. In this study, mice were placed on a hot plate that was thermostatically maintained at 55±1° C. The nociceptive response was evaluated as the latency to the first licking or lifting of the rear paws or escape jumping. Mice were removed from the hot plate immediately after displaying the response and a cut-off time of 30 sec was set to prevent tissue damage. The anti-nociceptive effect was measured using the same percentage of maximal possible effect (% MPE) as above.
To induce acute tolerance and dependence, separate groups of three ICR mice (20-25 g) were treated with a large dose of morphine (100 mg/kg s.c.). Maximal morphine tolerance and dependence peaked at approximately 4 to 6 h. Mice in the control group received an equal volume of saline. Tolerance to opioids was assessed 4.5 h later by monitoring the antinociceptive effect produced by a test dose of morphine (10 mg/kg, s.c.). The presence of opioid tolerance was signified by a significant reduction of antinociceptive effect. To examine dependence on opioids, mice were challenged with naloxone (10 mg/kg i.p.) 5h after the administration of morphine (100 mg/kg s.c.). Mice were immediately placed inside glass cylinders, and naloxone-induced vertical jumps were recorded for 15 min. […]

In the case of `COc1cc(C=CC(=O)CC(=O)C=Cc2ccc(O)c(OC)c2)ccc1O` [unformulated curcumin, 1,7-bis-(4-hydroxy-3-methoxyphenyl)-1,6-heptadiene-3,5-dione], the “Analgesia in tail-flick test” value (ICR mice [1]) is reported as “minimal effect” and the “Analgesia in hot plate test” value (ICR mice [2]) is reported as “minimal effect”.
